Consider four compounds from patent US6423729B1, “Therapeutic or prophylactic agent for glomerulopathy” (Shionogi & Co., Ltd., priority 1997, dated 2002).

The first data set deals with T1, MMP-9 (Homo sapiens, UniProt P14780).
T1 construct: made in house; host or cells: HT1080 human fibrosarcoma cells; endogenous protein secreted after TPA treatment and purified from conditioned medium
T1 sequence (P14780 107-707 limits assumed): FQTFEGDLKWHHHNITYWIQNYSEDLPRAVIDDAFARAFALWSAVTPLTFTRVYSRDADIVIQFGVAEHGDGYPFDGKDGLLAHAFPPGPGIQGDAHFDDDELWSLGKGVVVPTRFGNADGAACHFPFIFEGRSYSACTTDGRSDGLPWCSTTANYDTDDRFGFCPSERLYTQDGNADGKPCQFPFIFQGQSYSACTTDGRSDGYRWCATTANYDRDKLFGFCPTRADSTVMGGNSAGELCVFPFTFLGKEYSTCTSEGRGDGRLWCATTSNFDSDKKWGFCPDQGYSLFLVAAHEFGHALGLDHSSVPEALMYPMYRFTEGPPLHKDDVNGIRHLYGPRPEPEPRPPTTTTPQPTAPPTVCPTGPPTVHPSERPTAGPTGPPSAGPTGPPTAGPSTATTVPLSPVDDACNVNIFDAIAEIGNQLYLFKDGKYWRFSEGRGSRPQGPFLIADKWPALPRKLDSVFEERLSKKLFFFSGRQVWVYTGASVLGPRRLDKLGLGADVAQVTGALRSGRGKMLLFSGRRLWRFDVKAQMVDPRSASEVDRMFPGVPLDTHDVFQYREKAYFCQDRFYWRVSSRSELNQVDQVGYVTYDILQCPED
Put plainly: Assay for inhibitory activity against MMP-9. Format: biochemical.
Settings: not given
The procedure: (§1) Assay for Inhibitory Activities of MMP-9 and MMP-2
(§2) The enzymatic activity was analyzed on the method described by Knight, C. G., et al. (C. Graham Knight., Frances Willenbrock and Gillian Murphy: A novel coumarin-labelled peptide for sensitive continuous assays of the matrix metalloproteinases. FEBS Lett., 296 (1992) 263-266).
MMP-9 was purified by using a combination of procedures described in previous reports as follows. Yasunori Okada, Yukio Gonoji, Katsumi Naka, Katsuro Tomita, Isao Nakanishi, Kazushi Iwata and Taro Hayakawa: Matrix metalloproteinase 9 (92-kDa gelatinase/type IV collagenase) from HT1080 human fibrosarcoma cells. Purification and activation of the precursor and enzymic properties. J. Biol. Chem., 267 (1992) 21712-21719. Yasunori Okada, Tatsuhisa Morodomi, Jan J, Enghild, Ko Suzuki, Atsushi Yasui, Isao Nakanishi, Guy Salvesen and Hideaki Nagase: Matrix metalloproteinase 2 from human rheumatoid synovial fibroblasts. Purification and activation of the precursor and enzymic properties. Eur. J. Biochem. 194 (1990) 721-730. Robin V Ward, Rosalind M Hembry, John J Reynolds and Gillian Murphy: The purification of tissue inhibitor of metalloproteinase-2 from its 72 kDa progelatinase complex. Biochem. J. 278 (1991) 179-187.
Briefly, human fibrosarcoma ATCC HT1080 cell line was cultured to confluent in Dulbecco's Modified Medium (DMEM) containing 10% fetal-calf serum at 37° C. for 48 hours. Subsequently, the medium of confluent culture was changed to serum-free DMEM medium. To obtain MMP-9, Phorbol-12-myristate-13-acetate (TPA) must be added to this serum-free DMEM medium at a concentration of 50 ng/ml. The TPA treated medium was centrifuged at 3000 rpm for 15 min and the supernatant was concentrated to 450 ml by a Toyo-Roshi UP-20 apparatus with an ultrafiltration membrane. Then, proMMP-9 in this concentrated solution was purified by using columns of Gelatin-Sepharose and Concanavalin A-Sepharose. The pool containing proMMP-9 was dialyzed, concentrated (Toyo-Roshi UP-20) and applied to columns of Sephacryl S-200 and Green A matrix for the separation from TIMPs. The obtained proMMP-9 fraction was activated by TPCK-Trypsin (final conc. […] reaction mix.) for the assay.
(§3) MOCAc-Pro-Leu-Gly-Leu-A2pr(Dnp)-Ala-Arg-NH2 as a substrate was purchased from Petide Institute(Osaka pref., Japan). This substrate was dissolved in DMSO at a concentration of 1 mM.
(§4) Reaction buffer consists of 50 mM Tris-HCl buffer (pH 7.5) containing 10 mM CaCl2, 0.3 M NaCl, 0.005% Brij35 and 0.01% NaN3.
Assay Method of Inhibitory Activity Against MMP-9:
1.0 μl of a tested compound in DMSO is added to 48.0 μl of a reaction buffer containing 0.08 μl of an enzyme solution. After standing for 60 minutes at room temperature, the reaction was started by adding 1.0 μl of a substrate solution. After incubation for 60 minutes at room temperature, 100 μl of 3% (v/v) AcOH for reaction stopping and measured a fluorescence with excitation and emission at 320 nm and 405 nm, respectively (Spectrophotofluorometer; Fluoroscan Ascent (Labsystem)).
(§5) The measurement of the inhibitory activities (IC50) was carried out in a following four methods;
(§6) A) Reaction with substrate, enzyme and inhibitor
(§7) B) Reaction with substrate and inhibitor, without enzyme
(§8) C) Reaction with substrate and enzyme, without inhibitor
(§9) D) Reaction with substrate only
(§10) IC50 values were calculated by using a following formula and each fluorescence values of above four methods (A to D).
(§11) % inhibition={1−(A−B)/(C−D)}×100
(§12) IC50 means the concentration required to inhibit 50% of the enzyme activity.
For orientation: IC50 means the midpoint of a concentration-inhibition curve. As to `CC(C)[C@@H](NS(=O)(=O)c1ccc(-n2nnc(-c3ccc(C(F)(F)F)cc3)n2)cc1)C(=O)O` [Compound 104], the concentration for half-maximal inhibition (IC50) is 18.7 nM.
`Cc1ccc(-n2nnc(-c3ccc(S(=O)(=O)N[C@H](Cc4ccccc4)C(=O)O)s3)n2)cc1` [Compound 95]: the half-inhibitory concentration (IC50) came out at 19 nM.
For the compound `C[C@@H](NS(=O)(=O)c1ccc(-n2nnc(-c3ccc(F)cc3)n2)cc1)C(=O)O` [Compound 114], the IC50 stood at 316 nM.
`CCc1ccc(-c2nnn(-c3ccc(S(=O)(=O)N[C@H](Cc4ccccc4)C(=O)O)cc3)n2)cc1` [Compound 108]: the IC50 turned out to be 31.2 nM.

Tested on in a further data set: not given
Test: not given
Settings: not given
The melting point is the temperature of the solid-liquid transition. Turning to `CC(C)[C@@H](NS(=O)(=O)c1ccc(-n2nnc(-c3ccc(C(F)(F)F)cc3)n2)cc1)C(=O)O` [Compound 104], the melting point was in the range of 198 to 200 °C.
`Cc1ccc(-n2nnc(-c3ccc(S(=O)(=O)N[C@H](Cc4ccccc4)C(=O)O)s3)n2)cc1` [Compound 95]: the melting point lay within 166 to 169 °C.
Regarding `C[C@@H](NS(=O)(=O)c1ccc(-n2nnc(-c3ccc(F)cc3)n2)cc1)C(=O)O` [Compound 114], the melting point was in the range of 194 to 195 °C.
`CCc1ccc(-c2nnn(-c3ccc(S(=O)(=O)N[C@H](Cc4ccccc4)C(=O)O)cc3)n2)cc1` [Compound 108] registered a melting point of 187 to 189 °C.

The test system of a further data set is E30 monoclonal antibody-induced glomerulonephritis in Slc-Wistar rats. As to the kind of experiment: Urinary protein excretion in E30 monoclonal antibody-induced glomerulonephritis rats. The data set is classed as in vivo, rat. Particulars: urinary protein excretion on day 2 after E30 injection, compound-treated vs vehicle-treated group, oral, 100 mg once a day, first dose 2 hours before E30. The procedure:
Five to eight weeks old male Slc-Wistar rats were used in the experiment.
In order to induce glomerulonephritis, E30 of 20 to 500 μg, preferably 50 to 200 μg, is intravenously injected to rats of five to eight weeks old. Test compounds of 0.1 to 500 mg, preferably 1 to 200 mg, are suspended with 3 to 10%, preferably 4 to 6%, gum arabic solution and the like, and are orally given 1 to 5 hours, preferably 1.5 to 3 hours, prior to E30 injection. Constant amount of test compounds are then consecutively given 1 to 3 times a day. Evaluation of test compounds are determined by the amount of urinary protein excretion 2 days after E30 injection when proteinuria reaches to the maximum level.
Determination of the amount of urinary protein excretion is performed by the collection of 24-hour urine samples with stainless metabolic cages followed by the measurement of the concentration of urinary protein. Blood samples obtained at the follow-up period are processed for the determination of blood urea nitrogen and plasma creatinine, which indicate renal function. As a marker of damaged renal tubules, urinary amounts of N-acetyl-D-glycosaminidase excretion is measured. Furthermore, to study the inhibitory effects of compounds on mesangial proliferation following E30 injection, the number of PCNA (proliferating cell nuclear antigen) positive cells per single glomerulus is counted. Morphological changes are observed with light and electron microscopy.
5-week-old male Slc-Wistar rats were reared under the conditions of room temperature of 25° C., 40-60% humidity and 12 hour cycles of light and darkness and fed on solid chow (CA-1, Clea Japan) and tap water ad libitum. After one week's preliminary rearing, each rat was housed in a stainless metabolic cage for acclimation for one week, and was used for experiment at 7 weeks of old (body weight: 150-180 g). E30 monoclonal antibody (J.J.N., vol. 36, p106, 1994) was diluted with saline at 100 μg/0.4 ml and was administered from tail vein at the volume of 0.4 ml/body. Compound (2) was suspended with 5% gum arabic solution and was given at the dose of 100 mg 2 hours before E30 injection. Subsequently, compound (2) of 100 mg was orally administered once a day from the next day. The rats were housed in stainless metabolic cages just after the administration of test compound, and then 24-hour urine samples were collected. After measuring the volume, the urine was centrifuged at 3000 rpm for 10 min at room temperature. […] Urinary protein was determined by pyrogallole red method (Micro TP-test Wako, Wako Zyunyaku). The amount of urinary protein excretion on day 2 in compound-treated group was compared with that in vehicle-treated one, and inhibitory ratio of urinary protein excretion was calculated. […]
With `CC(C)[C@@H](NS(=O)(=O)c1ccc(-n2nnc(-c3ccc(C(F)(F)F)cc3)n2)cc1)C(=O)O` [Compound 104], the “Inhibitory rate (%) of urinary protein excretion” value (shortened to “Inhibitory rate (%)”) was 27%.
On to `Cc1ccc(-n2nnc(-c3ccc(S(=O)(=O)N[C@H](Cc4ccccc4)C(=O)O)s3)n2)cc1` [Compound 95], for which the “Inhibitory rate (%)” value was found to be 21%.
For `C[C@@H](NS(=O)(=O)c1ccc(-n2nnc(-c3ccc(F)cc3)n2)cc1)C(=O)O` [Compound 114], the “Inhibitory rate (%)” value stood at 2.7%.
On to `CCc1ccc(-c2nnn(-c3ccc(S(=O)(=O)N[C@H](Cc4ccccc4)C(=O)O)cc3)n2)cc1` [Compound 108], for which the “Inhibitory rate (%)” value was 35%.

The target in the next data set is T2, MMP-2 (Homo sapiens, UniProt P08253).
T2 construct: purchased Yagai (Yamagata pref., Japan)
T2 sequence (P08253 110-660): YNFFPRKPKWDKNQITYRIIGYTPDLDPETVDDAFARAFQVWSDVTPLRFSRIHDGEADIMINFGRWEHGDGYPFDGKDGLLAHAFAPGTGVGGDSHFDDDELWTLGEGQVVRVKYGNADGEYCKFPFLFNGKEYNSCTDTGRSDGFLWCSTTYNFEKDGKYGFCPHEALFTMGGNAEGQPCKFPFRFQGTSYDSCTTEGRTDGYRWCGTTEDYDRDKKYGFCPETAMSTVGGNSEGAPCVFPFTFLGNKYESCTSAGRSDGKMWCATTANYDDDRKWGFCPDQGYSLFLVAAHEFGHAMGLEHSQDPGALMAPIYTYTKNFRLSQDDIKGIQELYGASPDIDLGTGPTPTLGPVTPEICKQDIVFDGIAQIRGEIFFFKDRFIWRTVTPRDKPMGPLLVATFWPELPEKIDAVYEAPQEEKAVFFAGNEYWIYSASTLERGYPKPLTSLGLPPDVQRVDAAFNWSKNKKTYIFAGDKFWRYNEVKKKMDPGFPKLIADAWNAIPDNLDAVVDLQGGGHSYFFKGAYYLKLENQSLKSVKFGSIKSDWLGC
As to the kind of experiment: Assay for inhibitory activity against MMP-2.
Settings: not given
Format: biochemical. As for the experimental part: as §1, §2
MMP-2 was purchased from Yagai (Yamagata pref., Japan).
as §3, §4
Assay Method of Inhibitory Activity Against MMP-2:
1.0 μl of a tested compound in DMSO is added to 48.0 μl of a reaction buffer containing 0.05 μl of an enzyme solution. After standing for 60 minutes at room temperature, the reaction was started by adding 1.0 μl of a substrate solution. After incubation for 60 minutes at room temperature, 100 μl of 3% (v/v) AcOH for reaction stopping and measured a fluorescence with excitation and emission at 320 nm and 405 nm, respectively (Spectrophotofluorometer; Fluoroscan Ascent (Labsystem)).
as §5, §6, §7, §8, §9, §10, §11, §12
In turn, `CC(C)[C@@H](NS(=O)(=O)c1ccc(-n2nnc(-c3ccc(C(F)(F)F)cc3)n2)cc1)C(=O)O` [Compound 104] registered an IC50 of 2.02 nM.
`Cc1ccc(-n2nnc(-c3ccc(S(=O)(=O)N[C@H](Cc4ccccc4)C(=O)O)s3)n2)cc1` [Compound 95] came in with a half-inhibitory concentration (IC50) of 10.7 nM.
For `C[C@@H](NS(=O)(=O)c1ccc(-n2nnc(-c3ccc(F)cc3)n2)cc1)C(=O)O` [Compound 114], it took 27.8 nM to reach half-maximal inhibition (IC50).
On to `CCc1ccc(-c2nnn(-c3ccc(S(=O)(=O)N[C@H](Cc4ccccc4)C(=O)O)cc3)n2)cc1` [Compound 108], for which the IC50 was 9.92 nM.
